Laboratory results as given in ChEMBL document CHEMBL1201862, “PubChem BioAssay data set” (2004).
Activity calls are given as the source filed them.

target: Cytochrome P450 2C19 (Homo sapiens, UniProt P33261); assay: Cytochrome panel assay with activity outcomes. Panel member name: p450-cyp2c19 Compounds with AC50 equal or less than 10 uM are considered active; assay type: functional; details: read-out: AC50
Sequence (P33261 whole entry): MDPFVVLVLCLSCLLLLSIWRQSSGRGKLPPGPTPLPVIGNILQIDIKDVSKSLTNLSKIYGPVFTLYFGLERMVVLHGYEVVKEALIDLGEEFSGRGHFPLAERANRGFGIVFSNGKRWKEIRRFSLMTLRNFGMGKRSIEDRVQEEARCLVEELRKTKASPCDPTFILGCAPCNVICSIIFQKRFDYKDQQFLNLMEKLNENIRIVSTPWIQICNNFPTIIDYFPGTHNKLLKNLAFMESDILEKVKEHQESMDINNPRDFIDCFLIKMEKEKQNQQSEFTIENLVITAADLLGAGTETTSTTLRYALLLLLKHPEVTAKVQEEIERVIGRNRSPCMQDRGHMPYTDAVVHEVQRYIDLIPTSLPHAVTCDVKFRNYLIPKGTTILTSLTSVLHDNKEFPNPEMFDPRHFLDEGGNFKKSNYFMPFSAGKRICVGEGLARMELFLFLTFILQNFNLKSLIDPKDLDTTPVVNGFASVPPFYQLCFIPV

Row | Compound | AC50
1 | O=S(=O)(O)c1ccc2c(/N=N\c3c(O)ccc4ccccc34)cccc2c1 | 0.631 µM (inconclusive)
2 | COC(=O)c1c(NC(=O)C(C)(C)C)sc2c1C(C(=O)OC)CC2 (configuration not stated) | 14.1 µM (inconclusive)

target: T1, Replicative DNA helicase DnaB (Mycobacterium tuberculosis, UniProt P9WMR3); assay: DnaB intein splicing inhibitors, dose response, biochemical, cell-free fluorescence (AID 449749); assay type: functional; details: not given
T1 sequence (P9WMR3 whole entry): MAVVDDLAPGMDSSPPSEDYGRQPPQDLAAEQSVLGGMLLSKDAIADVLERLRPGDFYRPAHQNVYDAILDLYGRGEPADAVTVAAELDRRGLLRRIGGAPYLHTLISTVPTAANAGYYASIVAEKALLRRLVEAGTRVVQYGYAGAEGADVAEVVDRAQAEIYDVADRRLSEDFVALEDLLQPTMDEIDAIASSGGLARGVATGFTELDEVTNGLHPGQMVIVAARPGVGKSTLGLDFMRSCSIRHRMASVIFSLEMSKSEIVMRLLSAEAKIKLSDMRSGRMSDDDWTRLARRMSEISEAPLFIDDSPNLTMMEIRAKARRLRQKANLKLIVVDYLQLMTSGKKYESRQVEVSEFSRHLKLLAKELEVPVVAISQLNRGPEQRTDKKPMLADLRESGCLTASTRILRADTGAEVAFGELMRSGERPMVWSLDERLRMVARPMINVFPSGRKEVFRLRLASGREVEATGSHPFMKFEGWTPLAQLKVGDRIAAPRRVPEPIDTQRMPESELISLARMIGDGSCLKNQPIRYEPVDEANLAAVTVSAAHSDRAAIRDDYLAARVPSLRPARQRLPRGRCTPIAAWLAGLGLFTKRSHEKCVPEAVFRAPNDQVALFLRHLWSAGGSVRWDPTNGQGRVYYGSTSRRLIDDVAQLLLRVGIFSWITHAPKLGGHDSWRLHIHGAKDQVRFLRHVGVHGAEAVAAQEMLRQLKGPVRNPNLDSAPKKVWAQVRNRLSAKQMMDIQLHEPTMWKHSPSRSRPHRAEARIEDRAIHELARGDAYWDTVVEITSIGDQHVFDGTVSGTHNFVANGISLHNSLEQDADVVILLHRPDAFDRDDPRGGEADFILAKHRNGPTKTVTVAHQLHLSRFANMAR

Row | Compound | AC50
3 | CC(C)N=C(S)NC1(C)CCS(=O)(=O)C1 (configuration not stated) | > 380 µM (inactive)
4 | CC1=NN(c2ccccc2)C(=O)/C1=C\c1cn(CCC#N)nc1-c1ccc(Cl)cc1 | 3.78 µM (active)
5 | Cc1n[nH]c2c1C(c1ccc3c(c1)OCO3)C(C#N)=C(N)O2 (configuration not stated) | 15.6 µM (active)
6 | Cc1ccc(-n2nc(C)c3c2OC(N)=C(C#N)C3c2ccccc2F)cc1 (configuration not stated) | 5.37 µM (active)
7 | NC1=NN(c2cccc(C(=O)O)c2)C(=O)C1 | 20 µM (active)
8 | O=C1CC(CC(=O)N/N=C/c2ccccc2[N+](=O)[O-])=NN1 | 2.19 µM (active)
9 | Cc1ccc(S(=O)(=O)N2CCN(C(=O)c3ccccc3Cc3ccccc3)CC2)c(C)c1 | 2.54 µM (active)
10 | Cc1ccc(-c2csc(NC(=O)CSC3=NCCS3)n2)cc1 | 14.6 µM (active)

target: T2, Protein RecA (Mycobacterium tuberculosis, UniProt P9WHJ3); assay: Fluorescence Cell-Free Homogeneous Dose Retest to Identify Inhibitors of RecA-Intein Splicing Activity. [Related pubchem assays (depositor defined):AID2097, AID2223, AID489010, AID492950]; assay type: functional; details: not given
T2 sequence (P9WHJ3 whole entry): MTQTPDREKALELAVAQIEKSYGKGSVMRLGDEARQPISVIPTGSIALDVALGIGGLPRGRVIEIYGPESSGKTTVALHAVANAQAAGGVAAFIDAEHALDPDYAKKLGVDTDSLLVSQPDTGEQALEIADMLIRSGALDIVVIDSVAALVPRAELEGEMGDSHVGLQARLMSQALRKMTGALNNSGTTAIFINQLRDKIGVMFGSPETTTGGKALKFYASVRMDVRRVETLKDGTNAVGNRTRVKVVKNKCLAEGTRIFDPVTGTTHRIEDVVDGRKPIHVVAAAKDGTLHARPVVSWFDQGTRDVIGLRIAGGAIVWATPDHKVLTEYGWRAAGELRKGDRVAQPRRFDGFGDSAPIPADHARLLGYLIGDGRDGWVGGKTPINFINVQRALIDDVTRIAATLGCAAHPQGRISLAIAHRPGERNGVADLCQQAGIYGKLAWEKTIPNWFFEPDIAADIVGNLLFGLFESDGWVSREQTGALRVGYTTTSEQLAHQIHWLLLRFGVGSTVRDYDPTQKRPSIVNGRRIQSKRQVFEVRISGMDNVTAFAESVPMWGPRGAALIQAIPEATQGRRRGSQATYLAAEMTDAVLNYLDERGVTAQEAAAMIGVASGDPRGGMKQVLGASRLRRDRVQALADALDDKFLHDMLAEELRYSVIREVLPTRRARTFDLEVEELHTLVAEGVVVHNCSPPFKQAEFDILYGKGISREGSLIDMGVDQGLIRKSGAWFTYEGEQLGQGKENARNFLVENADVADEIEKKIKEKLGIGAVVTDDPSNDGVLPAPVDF

Row | Compound | EC50
11 | CC(C)N=C(S)NC1(C)CCS(=O)(=O)C1 (configuration not stated) | > 380 µM (inactive)
12 | CC1=NN(c2ccccc2)C(=O)/C1=C\c1cn(CCC#N)nc1-c1ccc(Cl)cc1 | 2.77 µM (active)
13 | Cc1n[nH]c2c1C(c1ccc3c(c1)OCO3)C(C#N)=C(N)O2 (configuration not stated) | 6.16 µM (active)
14 | Cc1ccc(-n2nc(C)c3c2OC(N)=C(C#N)C3c2ccccc2F)cc1 (configuration not stated) | 24 µM (inconclusive)
15 | NC1=NN(c2cccc(C(=O)O)c2)C(=O)C1 | 23.7 µM (inconclusive)
16 | O=C1CC(CC(=O)N/N=C/c2ccccc2[N+](=O)[O-])=NN1 | 1.85 µM (active)
17 | Cc1ccc(S(=O)(=O)N2CCN(C(=O)c3ccccc3Cc3ccccc3)CC2)c(C)c1 | 208 µM (active)
18 | Cc1ccc(-c2csc(NC(=O)CSC3=NCCS3)n2)cc1 | 3.83 µM (active)

target: T3, Corticotropin-releasing factor receptor 2/Corticotropin-releasing factor-binding protein (Homo sapiens, UniProt P24387+Q13324); assay: activators of CRF receptor 2 with binding protein – uHTS hits, confirmation (AID 602473); assay type: functional; details: read-out: EC50_Mean
T3 sequence (Q13324 whole entry): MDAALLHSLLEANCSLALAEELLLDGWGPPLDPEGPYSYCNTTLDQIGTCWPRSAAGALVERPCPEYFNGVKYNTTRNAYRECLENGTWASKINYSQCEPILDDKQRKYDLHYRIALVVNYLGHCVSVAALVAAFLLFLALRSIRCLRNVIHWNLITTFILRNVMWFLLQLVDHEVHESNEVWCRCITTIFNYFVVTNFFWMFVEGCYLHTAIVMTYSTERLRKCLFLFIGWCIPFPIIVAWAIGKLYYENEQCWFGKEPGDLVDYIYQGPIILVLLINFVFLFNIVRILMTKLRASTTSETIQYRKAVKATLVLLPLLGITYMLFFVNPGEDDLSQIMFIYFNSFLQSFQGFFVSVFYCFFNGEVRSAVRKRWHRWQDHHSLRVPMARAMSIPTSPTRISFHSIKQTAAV
T3 sequence (P24387 whole entry): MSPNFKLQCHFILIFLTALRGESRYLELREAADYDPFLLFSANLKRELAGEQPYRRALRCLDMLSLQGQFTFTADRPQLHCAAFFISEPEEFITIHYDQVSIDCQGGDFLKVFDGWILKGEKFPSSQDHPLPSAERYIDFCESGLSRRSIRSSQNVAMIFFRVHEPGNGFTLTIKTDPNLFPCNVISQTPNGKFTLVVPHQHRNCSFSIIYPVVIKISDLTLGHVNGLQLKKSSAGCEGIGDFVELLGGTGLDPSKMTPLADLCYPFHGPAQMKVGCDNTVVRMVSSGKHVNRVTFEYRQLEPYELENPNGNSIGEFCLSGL

Row | Compound | EC50
19 | O=C(C1CCCC1)N1CCCC(Nc2ccc(F)cc2)C1 (configuration not stated) | > 53 µM (inactive)
20 | C[C@]12c3[nH]c4ccccc4c3CCN1C(=O)C(CC(=O)NCC13C[C@H]4C[C@@H](C1)C[C@@H](C3)C4)C[C@@H]2C(=O)N1CCOCC1 (some centres not stated) | > 53 µM (inactive)

target: T4, Cytochrome P450 1A2 (Homo sapiens, UniProt P05177); details: not given;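 note: PubChem cytochrome P450 panel assay, CYP1A2 panel member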
T4 sequence (P05177 whole entry): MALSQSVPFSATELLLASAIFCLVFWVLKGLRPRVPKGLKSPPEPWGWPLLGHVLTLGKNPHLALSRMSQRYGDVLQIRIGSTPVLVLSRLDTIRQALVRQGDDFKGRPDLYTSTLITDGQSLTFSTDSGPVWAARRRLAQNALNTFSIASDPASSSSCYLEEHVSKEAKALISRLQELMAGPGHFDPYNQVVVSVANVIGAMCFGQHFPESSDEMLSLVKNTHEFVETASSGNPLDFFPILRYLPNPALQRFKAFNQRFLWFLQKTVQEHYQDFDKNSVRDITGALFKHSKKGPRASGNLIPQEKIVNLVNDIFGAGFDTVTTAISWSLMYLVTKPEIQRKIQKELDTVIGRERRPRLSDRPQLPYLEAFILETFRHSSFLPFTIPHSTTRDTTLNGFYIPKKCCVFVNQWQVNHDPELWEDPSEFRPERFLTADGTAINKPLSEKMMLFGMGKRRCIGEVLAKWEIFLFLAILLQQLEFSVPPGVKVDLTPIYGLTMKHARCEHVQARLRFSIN

Row | Compound | AC50
21 | COCCn1c(=O)c(-c2ccc(Cl)cc2)nc2cnc(Nc3ccccc3)nc21 | 20 µM (inconclusive)
22 | O=S(=O)(O)c1ccc2c(/N=N\c3c(O)ccc4ccccc34)cccc2c1 | 3.16 µM (inconclusive)
23 | COC(=O)c1c(NC(=O)C(C)(C)C)sc2c1C(C(=O)OC)CC2 (configuration not stated) | 0.794 µM (inconclusive)
24 | CNCC[C@@H](Oc1ccccc1C)c1ccccc1 [ATOMOXETINE] | 15.8 µM (inconclusive)
25 | O=C(CN(C(=O)CSc1nc2ccccc2o1)c1cccc(F)c1)NC1CCCCC1 | 20 µM (inconclusive)
26 | COc1cccc(-c2csc(N3CCN(CC(=O)NNC(=O)c4ccc(Cl)cc4)CC3)n2)c1 | 8.91 µM (inconclusive)

target: Cytochrome P450 3A4 (Homo sapiens, UniProt P08684); details: not given;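 note: CYP3A4 tested as one member of a cytochrome P450 panel screen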
Sequence (P08684 whole entry): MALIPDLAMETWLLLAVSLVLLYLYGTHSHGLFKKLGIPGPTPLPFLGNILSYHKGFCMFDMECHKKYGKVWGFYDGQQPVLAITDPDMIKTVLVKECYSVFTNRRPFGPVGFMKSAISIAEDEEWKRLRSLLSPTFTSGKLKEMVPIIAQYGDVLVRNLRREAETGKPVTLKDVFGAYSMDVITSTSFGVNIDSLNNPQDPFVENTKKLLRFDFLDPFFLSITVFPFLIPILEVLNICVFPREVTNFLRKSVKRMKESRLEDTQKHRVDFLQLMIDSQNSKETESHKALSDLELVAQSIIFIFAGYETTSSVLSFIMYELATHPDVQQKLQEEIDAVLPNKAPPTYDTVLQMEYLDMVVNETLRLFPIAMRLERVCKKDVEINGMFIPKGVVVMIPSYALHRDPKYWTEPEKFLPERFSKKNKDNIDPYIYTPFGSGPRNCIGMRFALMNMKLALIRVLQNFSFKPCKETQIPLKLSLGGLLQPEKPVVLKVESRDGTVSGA

Row | Compound | AC50
27 | CNCC[C@@H](Oc1ccccc1C)c1ccccc1 [ATOMOXETINE] | 12.6 µM (inconclusive)
